Data reported in patent publication US20240287138A1, “CYCLIC PEPTIDES FOR INHIBITING TNF RECEPTOR 1 ACTIVITY” (Merck Sharp & Dohme LLC, priority 2023, published 2024).
pIC50, pKd: −log10 of the molar value. Numbered stars: 1 amine (or outer) side, 2 acyl side, 3 side chain; on linkers, the order of the positions; unused ones are H or OH. Bridge positions count the residues as written; N and C are the ends. Square brackets hold non-standard residues; d marks the D form. Peptide text beside a SMILES is read from it. * marks the point of attachment. Ala(2-carboxypyrimidin-5-yl) = N[C@@H](Cc1cnc(C(=O)O)nc1)C(=O)O; Trp(βS-Me,7-OMe) = COc1cccc2c([C@H](C)[C@H](N)C(=O)O)c[nH]c12; Phe(4-SO2NH2) = N[C@@H](Cc1ccc(S(N)(=O)=O)cc1)C(=O)O; Trp(7-CN) = N#Cc1cccc2c(C[C@H](N)C(=O)O)c[nH]c12; Trp(7-Cl) = N[C@@H](Cc1c[nH]c2c(Cl)cccc12)C(=O)O; Phe(3-COOH) = N[C@@H](Cc1cccc(C(=O)O)c1)C(=O)O; Phe(4-CONH2) = NC(=O)c1ccc(C[C@H](N)C(=O)O)cc1; Phe(4-COOH) = N[C@@H](Cc1ccc(C(=O)O)cc1)C(=O)O; X59 = O=C([C@H](Cc1[nH]nc2ccccc12)N[*:1])[*:2]; Trp(7-aza) = N[C@@H](Cc1c[nH]c2ncccc12)C(=O)O; X60 = NC(=O)[C@H](O)[C@H](N[*:1])C(=O)[*:2]; X52 = C[C@@H](C(=O)[*:2])N(CCC(N)=O)[*:1]; Pip(5R-OH) = O=C(O)[C@@H]1CC[C@@H](O)CN1; X1 = O=C([C@@H]1CC[C@H](N[*:1])C1)[*:2]; Pip(4-aza) = O=C(O)[C@@H]1CNCCN1; 4Pal = N[C@@H](Cc1ccncc1)C(=O)O; NMeE = CN[C@@H](CCC(=O)O)C(=O)O; dHyp = O=C(O)[C@H]1C[C@H](O)CN1; αMeS = C[C@](N)(CO)C(=O)O; Carboxymethyl = O=C(O)C*; Nle = CCCC[C@H](N)C(=O)O; Sar = CNCC(=O)O

What was measured:
[1] = molecular target: T1, TNFα-induced NF-κB signal transduction pathway (TNFR1 signaling) in THP-1 cells (Homo sapiens, UniProt P19438); assay: THP-1 Lucia NF-κB reporter cell assay, inhibition of TNFα-induced NF-κB signaling; type: cell-based; settings: THP-1 NF-κB Lucia reporter cells, 10 ng/mL TNFα, 16-18 h, secreted luciferase; read-out: THP-1 IC50
T1 sequence (P19438 30-455): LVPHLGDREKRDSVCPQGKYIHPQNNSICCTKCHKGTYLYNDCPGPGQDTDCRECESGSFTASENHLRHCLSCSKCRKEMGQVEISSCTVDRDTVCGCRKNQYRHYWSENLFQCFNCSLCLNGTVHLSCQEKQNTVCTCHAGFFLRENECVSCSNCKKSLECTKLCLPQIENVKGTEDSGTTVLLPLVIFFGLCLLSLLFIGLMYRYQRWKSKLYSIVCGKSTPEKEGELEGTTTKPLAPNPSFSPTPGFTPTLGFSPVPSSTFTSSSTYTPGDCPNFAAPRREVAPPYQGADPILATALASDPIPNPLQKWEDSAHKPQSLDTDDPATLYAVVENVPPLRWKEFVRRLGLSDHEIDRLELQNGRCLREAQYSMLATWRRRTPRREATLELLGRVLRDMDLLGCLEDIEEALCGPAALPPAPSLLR
Outline: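 IC50 from a 4-parameter logistic fit of secreted luciferase luminescence (QUANTI-Luc), normalised to min/max controls. Reporter THP-1 cells were exposed to peptides for 1 h at 37 °C before 10 ng/mL TNFα (final) was added overnight (16–18 h).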

[2] = molecular target: T2, human soluble TNFR1 (sTNFR1) (Homo sapiens, UniProt P19438); assay: Human sTNFR1-peptide displacement assay (LanthaScreen Eu TR-FRET binding assay)
T2 construct: made in house; host or cells: Sf21 (baculovirus)
T2 sequence (P19438 with tags, fused parts or gaps): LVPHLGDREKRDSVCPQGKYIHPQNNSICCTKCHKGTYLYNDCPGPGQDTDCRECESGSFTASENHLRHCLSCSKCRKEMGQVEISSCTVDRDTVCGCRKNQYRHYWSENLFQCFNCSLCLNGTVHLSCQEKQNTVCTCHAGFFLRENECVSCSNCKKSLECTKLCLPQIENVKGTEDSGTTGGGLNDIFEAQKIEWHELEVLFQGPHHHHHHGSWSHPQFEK
Outline: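 Readout is the 665/615 nm TR-FRET ratio (Eu anti-His donor, streptavidin-Alexa647 acceptor), normalized to DMSO and saturating displacer, fit by Morrison-based five-parameter logistic for Kd^app. His-tagged sTNFR1 (1-211) prebound to 100 nM biotinylated peptide SEQ ID NO.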

SMILES	pIC50 [1]	pIC50 [2]	pKd [2]
CCCC[C@@H]1NC(=O)CSC[C@@H](C(N)=O)NC(=O)[C@H]([C@@H](C)c2c[nH]c3c(OC)cccc23)NC(=O)CN(C)C(=O)[C@H](Cc2ccc(OC)cc2)NC(=O)[C@H](Cc2ccc(C(=O)O)cc2)NC(=O)[C@](C)(CO)NC(=O)[C@H](Cc2c[nH]c3c(Cl)cccc23)NC(=O)[C@H](Cc2ccc(C(N)=O)cc2)NC(=O)[C@H](CC(N)=O)NC(=O)[C@H](CCC(=O)O)N(C)C(=O)[C@H](Cc2c[nH]c3ccccc23)NC(=O)[C@@H]2CNCCN2C(=O)[C@H](Cc2ccncc2)NC1=O [SEQ ID NO. 162] ({CH2CO}-[Nle][4Pal][Pip(4-aza)]W[NMeE]N[Phe(4-CONH2)][Trp(7-Cl)][αMeS][Phe(4-COOH)]Y(Me)[Sar][Trp(βS-Me,7-OMe)]C-NH2; thioether N-14)	10.00	9.16	9.25
CCCC[C@@H]1NC(=O)[C@@H]2CC[C@@H](C2)NC(=O)[C@H]([C@@H](C)c2c[nH]c3c(OC)cccc23)NC(=O)CN(C)C(=O)[C@H](Cc2cnc(C(=O)O)nc2)NC(=O)[C@H](Cc2ccc(C(N)=O)cc2)NC(=O)[C@](C)(CO)NC(=O)[C@H](Cc2c[nH]c3c(Cl)cccc23)NC(=O)[C@H](Cc2ccc(C(=O)O)cc2)NC(=O)[C@H](CC(N)=O)NC(=O)[C@H]2C[C@H](O)CN2C(=O)[C@H](Cc2c[nH]c3ccccc23)NC(=O)[C@@H]2CC[C@@H](O)CN2C(=O)[C@H](Cc2ccncc2)NC1=O [SEQ ID NO. 191] (cyclo([4Pal][Pip(5R-OH)]W[dHyp]N[Phe(4-COOH)][Trp(7-Cl)][αMeS][Phe(4-CONH2)][Ala(2-carboxypyrimidin-5-yl)][Sar][Trp(βS-Me,7-OMe)][X1][Nle]))	8.80		9.74
CCCC[C@@H]1NC(=O)[C@@H]2CC[C@@H](C2)NC(=O)[C@H]([C@@H](C)c2c[nH]c3c(OC)cccc23)NC(=O)CN(C)C(=O)[C@H](Cc2ccc(C(=O)O)cc2)NC(=O)[C@H](Cc2ccc(C(N)=O)cc2)NC(=O)[C@](C)(CO)NC(=O)[C@H](Cc2c[nH]c3c(C#N)cccc23)NC(=O)[C@H](Cc2ccncc2)NC(=O)[C@H]([C@@H](O)C(N)=O)NC(=O)[C@H]2C[C@H](O)CN2C(=O)[C@H](Cc2c[nH]c3ccccc23)NC(=O)[C@@H]2CC[C@@H](O)CN2C(=O)[C@H](Cc2ccncc2)NC1=O [SEQ ID NO. 78] (cyclo([4Pal][Trp(7-CN)][αMeS][Phe(4-CONH2)][Phe(4-COOH)][Sar][Trp(βS-Me,7-OMe)][X1][Nle][4Pal][Pip(5R-OH)]W[dHyp][X60]))	9.15		10.30
CCCC[C@@H]1NC(=O)CSC[C@@H](C(N)=O)NC(=O)[C@H]([C@@H](C)c2c[nH]c3c(OC)cccc23)NC(=O)CN(C)C(=O)[C@H](Cc2ccc(O)cc2)NC(=O)[C@H](Cc2cccc(C(=O)O)c2)NC(=O)[C@](C)(CO)NC(=O)[C@H](Cc2c[nH]c3c(Cl)cccc23)NC(=O)[C@H](Cc2ccncc2)NC(=O)[C@H](CC(N)=O)NC(=O)[C@H](CCC(=O)O)N(C)C(=O)[C@H](Cc2c[nH]c3ccccc23)NC(=O)[C@@H]2CNCCN2C(=O)[C@H](Cc2ccncc2)NC1=O [SEQ ID NO. 249] ({CH2CO}-[Nle][4Pal][Pip(4-aza)]W[NMeE]N[4Pal][Trp(7-Cl)][αMeS][Phe(3-COOH)]Y[Sar][Trp(βS-Me,7-OMe)]C-NH2; thioether N-14)	8.36	9.00	
CCCC[C@@H]1NC(=O)[C@@H]2CC[C@@H](C2)NC(=O)[C@H]([C@@H](C)c2c[nH]c3c(OC)cccc23)NC(=O)CN(C)C(=O)[C@H](Cc2ccc(C(N)=O)cc2)NC(=O)[C@H](Cc2ccc(C(N)=O)cc2)NC(=O)[C@](C)(CO)NC(=O)[C@H](Cc2c[nH]c3c(C#N)cccc23)NC(=O)[C@H](Cc2ccc(C(=O)O)cc2)NC(=O)[C@H](CC(N)=O)NC(=O)[C@H](C)N(CCC(N)=O)C(=O)[C@H](Cc2c[nH]c3ncccc23)NC(=O)[C@@H]2CC[C@@H](O)CN2C(=O)[C@H](Cc2ccncc2)NC1=O [SEQ ID NO. 147] (cyclo([4Pal][Pip(5R-OH)][Trp(7-aza)][X52]N[Phe(4-COOH)][Trp(7-CN)][αMeS][Phe(4-CONH2)][Phe(4-CONH2)][Sar][Trp(βS-Me,7-OMe)][X1][Nle]))	8.85		9.68
CCCC[C@@H]1NC(=O)[C@@H]2CC[C@@H](C2)NC(=O)[C@H]([C@@H](C)c2c[nH]c3c(OC)cccc23)NC(=O)CN(C)C(=O)[C@H](Cc2ccc(C(=O)O)cc2)NC(=O)[C@H](Cc2ccc(S(N)(=O)=O)cc2)NC(=O)[C@](C)(CO)NC(=O)[C@H](Cc2c[nH]c3c(C#N)cccc23)NC(=O)[C@H](Cc2ccc(C(=O)O)cc2)NC(=O)[C@H](CC(N)=O)NC(=O)[C@H]2C[C@H](OCC(=O)O)CN2C(=O)[C@H](Cc2[nH]nc3ccccc23)NC(=O)[C@@H]2CC[C@@H](O)CN2C(=O)[C@H](Cc2ccncc2)NC1=O [SEQ ID NO. 204] (cyclo([4Pal][Pip(5R-OH)][X59][dHyp](Carboxymethyl)N[Phe(4-COOH)][Trp(7-CN)][αMeS][Phe(4-SO2NH2)][Phe(4-COOH)][Sar][Trp(βS-Me,7-OMe)][X1][Nle]))	9.10		9.96
